Results reported in ChEMBL document CHEMBL1255478, “Characterization of CSP-1, a novel extended-spectrum beta-lactamase produced by a clinical isolate of Capnocytophaga sputigena” (2010).
Values after ≈ are worked out from the molar mass of the structure shown.

How the values were obtained:
Format in all cases: functional
Escherichia coli [1] = assay: Antimicrobial activity against Escherichia coli TOP10 after 2 days by agar dilution method; conditions: TOP10, 48 h
Capnocytophaga sputigena [2] = assay: Antimicrobial activity against Capnocytophaga sputigena isolate NOR after 2 days by agar dilution method; conditions: 48 h
Capnocytophaga sputigena [3] = assay: Antimicrobial activity against Capnocytophaga sputigena CIP 104301T after 2 days by agar dilution method; conditions: 48 h
Escherichia coli [4] = assay: Antimicrobial activity against Escherichia coli TOP10(pNOR-1) expressing CSP-1 gene after 2 days by agar dilution method; conditions: 48 h
Capnocytophaga sputigena [5] = assay: Antimicrobial activity against Capnocytophaga sputigena CRBIP 17.39 after 2 days by agar dilution method; conditions: CRBIP 17.39, 48 h

CC(C)(O/N=C(\C(=O)N[C@@H]1C(=O)N2C(C(=O)[O-])=C(C[n+]3ccccc3)CS[C@H]12)c1csc(N)n1)C(=O)O [CEFTAZIDIME] was tested, and the MIC (Escherichia coli [1]) was under 0.06 µg/mL, the MIC (Capnocytophaga sputigena [2]) was 4 µg/mL (≈ 7.32 µM) and the MIC (Capnocytophaga sputigena [3]) was under 0.06 µg/mL. For the same compound, the MIC (Escherichia coli [4]) was 0.5 µg/mL (≈ 0.915 µM) and the MIC (Capnocytophaga sputigena [5]) was under 0.06 µg/mL.
C[C@@H](O)[C@H]1C(=O)N2C(C(=O)O)=C(SCCNC=N)C[C@H]12 [IMIPENEM ANHYDROUS] gave an MIC (Capnocytophaga sputigena [2]) of 0.06 µg/mL (≈ 0.2 µM), an MIC (Capnocytophaga sputigena [3]) of 0.06 µg/mL (≈ 0.2 µM) and an MIC (Escherichia coli [4]) of 0.06 µg/mL (≈ 0.2 µM). The MIC (Capnocytophaga sputigena [5]) was 0.06 µg/mL (≈ 0.2 µM).
CO[C@@]1(NC(=O)Cc2cccs2)C(=O)N2C(C(=O)O)=C(COC(N)=O)CS[C@@H]21 [CEFOXITIN] showed an MIC (Escherichia coli [1]) of 2 µg/mL (≈ 4.68 µM), an MIC (Capnocytophaga sputigena [2]) of 0.5 µg/mL (≈ 1.17 µM) and an MIC (Capnocytophaga sputigena [3]) of 0.5 µg/mL (≈ 1.17 µM). It also gave an MIC (Escherichia coli [4]) of 2 µg/mL (≈ 4.68 µM) and an MIC (Capnocytophaga sputigena [5]) of 0.5 µg/mL (≈ 1.17 µM).
CO/N=C(\C(=O)N[C@@H]1C(=O)N2C(C(=O)[O-])=C(C[N+]3(C)CCCC3)CS[C@H]12)c1csc(N)n1 [CEFEPIME] showed an MIC (Capnocytophaga sputigena [2]) of 0.125 µg/mL (≈ 0.26 µM), an MIC (Capnocytophaga sputigena [3]) of under 0.06 µg/mL and an MIC (Escherichia coli [4]) of 4 µg/mL (≈ 8.32 µM). The MIC (Capnocytophaga sputigena [5]) was under 0.06 µg/mL.
CO/N=C(\C(=O)N[C@@H]1C(=O)N2C(C(=O)O)=C(COC(N)=O)CS[C@H]12)c1ccco1 [CEFUROXIME] was tested, and the MIC (Escherichia coli [1]) was 0.5 µg/mL (≈ 1.18 µM), the MIC (Capnocytophaga sputigena [2]) was 64 µg/mL (≈ 151 µM) and the MIC (Capnocytophaga sputigena [3]) was 0.5 µg/mL (≈ 1.18 µM). The MIC (Escherichia coli [4]) was 256 µg/mL (≈ 603 µM) and the MIC (Capnocytophaga sputigena [5]) was 0.5 µg/mL (≈ 1.18 µM).
Compound CO/N=C(\C(=O)N[C@@H]1C(=O)N2C(C(=O)O)=C(COC(C)=O)CS[C@H]12)c1csc(N)n1 [CEFOTAXIME] has an MIC (Escherichia coli [1]) of under 0.06 µg/mL, an MIC (Capnocytophaga sputigena [2]) of 0.25 µg/mL (≈ 0.549 µM) and an MIC (Capnocytophaga sputigena [3]) of under 0.06 µg/mL. It also gave an MIC (Escherichia coli [4]) of 8 µg/mL (≈ 17.6 µM) and an MIC (Capnocytophaga sputigena [5]) of under 0.06 µg/mL.
With CCN1CCN(C(=O)N[C@@H](C(=O)N[C@@H]2C(=O)N3[C@@H]2SC(C)(C)[C@@H]3C(=O)O)c2ccccc2)C(=O)C1=O [PIPERACILLIN] the MIC (Escherichia coli [1]) was 1 µg/mL (≈ 1.93 µM), the MIC (Capnocytophaga sputigena [2]) was 0.5 µg/mL (≈ 0.966 µM) and the MIC (Capnocytophaga sputigena [3]) was 0.25 µg/mL (≈ 0.483 µM). For the same compound, the MIC (Escherichia coli [4]) was 16 µg/mL (≈ 30.9 µM) and the MIC (Capnocytophaga sputigena [5]) was 0.25 µg/mL (≈ 0.483 µM).
C[C@H]1[C@H](NC(=O)/C(=N\OC(C)(C)C(=O)O)c2csc(N)n2)C(=O)N1S(=O)(=O)O [AZTREONAM] was tested, and the MIC (Capnocytophaga sputigena [2]) was 0.125 µg/mL (≈ 0.287 µM), the MIC (Capnocytophaga sputigena [3]) was 0.125 µg/mL (≈ 0.287 µM) and the MIC (Escherichia coli [4]) was 16 µg/mL (≈ 36.7 µM). For the same compound, the MIC (Capnocytophaga sputigena [5]) was 0.125 µg/mL (≈ 0.287 µM).
With CC(=O)OCC1=C(C(=O)O)N2C(=O)[C@@H](NC(=O)Cc3cccs3)[C@H]2SC1 [CEPHALOTHIN] the MIC (Escherichia coli [1]) was 4 µg/mL (≈ 10.1 µM), the MIC (Capnocytophaga sputigena [2]) was 64 µg/mL (≈ 161 µM) and the MIC (Capnocytophaga sputigena [3]) was 0.25 µg/mL (≈ 0.631 µM). It also gave an MIC (Escherichia coli [4]) of over 512 µg/mL and an MIC (Capnocytophaga sputigena [5]) of 0.125 µg/mL (≈ 0.315 µM).
In the case of CC1(C)S[C@@H]2[C@H](NC(=O)[C@H](N)c3ccc(O)cc3)C(=O)N2[C@H]1C(=O)O [AMOXICILLIN], the MIC (Escherichia coli [1]) is reported as 2 µg/mL (≈ 5.47 µM), the MIC (Capnocytophaga sputigena [2]) is reported as 256 µg/mL (≈ 701 µM) and the MIC (Capnocytophaga sputigena [3]) is reported as 0.25 µg/mL (≈ 0.684 µM). It also gave an MIC (Escherichia coli [4]) of over 512 µg/mL and an MIC (Capnocytophaga sputigena [5]) of 0.25 µg/mL (≈ 0.684 µM).
CC1(C)S[C@@H]2[C@H](NC(=O)[C@H](C(=O)O)c3ccsc3)C(=O)N2[C@H]1C(=O)O [TICARCILLIN] gave an MIC (Escherichia coli [1]) of 1 µg/mL (≈ 2.6 µM), an MIC (Capnocytophaga sputigena [2]) of 4 µg/mL (≈ 10.4 µM) and an MIC (Capnocytophaga sputigena [3]) of 0.25 µg/mL (≈ 0.65 µM). The MIC (Escherichia coli [4]) was over 512 µg/mL and the MIC (Capnocytophaga sputigena [5]) was 0.25 µg/mL (≈ 0.65 µM).
